The source of these data is the supplement of paper PMC12463676, “Small-molecule dissolution of stress granules by redox modulation benefits ALS models” (Nature Chemical Biology, 2025).

Compound in one test: NC(=O)CCCCC1CCSS1 [lipoamide]
Nature of the test: thermal stability z-score vs DMSO; higher = more thermally stabilized by treatment. To be noted: HeLa, lipoamide concentration 100 µM. On the procedure:
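Cellular thermal proteome profiling in HeLa cells. Cells were treated with 100 µM lipoamide for 1 h, with or without 1 mM arsenate for a further 1 h, then heated to ten temperatures (37-66.3 °C), and soluble protein was quantified by TMT mass spectrometry relative to 0.1% DMSO controls. The thermal stability score (sum of log2 fold changes minus the abundance score) was transformed to a z-score; mean of n = 3 experiments.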

Compound in the next test: O=[As]([O-])(O)O.[K+] [potassium arsenate]
Described as above. To be noted: HeLa; arsenate concentration 1 mM. Here is the method: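 Cellular thermal proteome profiling in HeLa cells treated with 1 mM arsenate for 1 h (DMSO pretreatment), heated to ten temperatures (37-66.3 °C). Soluble protein was quantified by TMT mass spectrometry relative to DMSO controls; the thermal stability score was transformed to a z-score; mean of n = 3 experiments.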

The mark [1] stands for this setting: arsenate co-treatment: 1 mM arsenate 1 h.
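Also: each temperature applied for 3 min, abundance score taken as mean log2 fold change at the two lowest temperatures, z-score obtained by mean subtraction and division by SD.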

Sequence of UniProt Q9Y3Q3 (Q9Y3Q3 whole entry): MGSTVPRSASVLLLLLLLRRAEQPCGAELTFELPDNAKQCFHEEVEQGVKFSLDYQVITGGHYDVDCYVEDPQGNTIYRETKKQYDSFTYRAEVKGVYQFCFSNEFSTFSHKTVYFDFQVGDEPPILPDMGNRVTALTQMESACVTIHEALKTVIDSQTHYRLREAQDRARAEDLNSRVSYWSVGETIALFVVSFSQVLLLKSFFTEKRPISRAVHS
Sequence of UniProt Q16890 (Q16890 whole entry): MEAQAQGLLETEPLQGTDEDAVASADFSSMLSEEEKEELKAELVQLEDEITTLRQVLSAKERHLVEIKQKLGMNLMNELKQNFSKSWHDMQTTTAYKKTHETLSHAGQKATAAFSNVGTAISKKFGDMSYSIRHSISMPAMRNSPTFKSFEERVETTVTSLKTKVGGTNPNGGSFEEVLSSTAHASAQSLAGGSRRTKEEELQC
Sequence of UniProt O75533 (O75533 whole entry): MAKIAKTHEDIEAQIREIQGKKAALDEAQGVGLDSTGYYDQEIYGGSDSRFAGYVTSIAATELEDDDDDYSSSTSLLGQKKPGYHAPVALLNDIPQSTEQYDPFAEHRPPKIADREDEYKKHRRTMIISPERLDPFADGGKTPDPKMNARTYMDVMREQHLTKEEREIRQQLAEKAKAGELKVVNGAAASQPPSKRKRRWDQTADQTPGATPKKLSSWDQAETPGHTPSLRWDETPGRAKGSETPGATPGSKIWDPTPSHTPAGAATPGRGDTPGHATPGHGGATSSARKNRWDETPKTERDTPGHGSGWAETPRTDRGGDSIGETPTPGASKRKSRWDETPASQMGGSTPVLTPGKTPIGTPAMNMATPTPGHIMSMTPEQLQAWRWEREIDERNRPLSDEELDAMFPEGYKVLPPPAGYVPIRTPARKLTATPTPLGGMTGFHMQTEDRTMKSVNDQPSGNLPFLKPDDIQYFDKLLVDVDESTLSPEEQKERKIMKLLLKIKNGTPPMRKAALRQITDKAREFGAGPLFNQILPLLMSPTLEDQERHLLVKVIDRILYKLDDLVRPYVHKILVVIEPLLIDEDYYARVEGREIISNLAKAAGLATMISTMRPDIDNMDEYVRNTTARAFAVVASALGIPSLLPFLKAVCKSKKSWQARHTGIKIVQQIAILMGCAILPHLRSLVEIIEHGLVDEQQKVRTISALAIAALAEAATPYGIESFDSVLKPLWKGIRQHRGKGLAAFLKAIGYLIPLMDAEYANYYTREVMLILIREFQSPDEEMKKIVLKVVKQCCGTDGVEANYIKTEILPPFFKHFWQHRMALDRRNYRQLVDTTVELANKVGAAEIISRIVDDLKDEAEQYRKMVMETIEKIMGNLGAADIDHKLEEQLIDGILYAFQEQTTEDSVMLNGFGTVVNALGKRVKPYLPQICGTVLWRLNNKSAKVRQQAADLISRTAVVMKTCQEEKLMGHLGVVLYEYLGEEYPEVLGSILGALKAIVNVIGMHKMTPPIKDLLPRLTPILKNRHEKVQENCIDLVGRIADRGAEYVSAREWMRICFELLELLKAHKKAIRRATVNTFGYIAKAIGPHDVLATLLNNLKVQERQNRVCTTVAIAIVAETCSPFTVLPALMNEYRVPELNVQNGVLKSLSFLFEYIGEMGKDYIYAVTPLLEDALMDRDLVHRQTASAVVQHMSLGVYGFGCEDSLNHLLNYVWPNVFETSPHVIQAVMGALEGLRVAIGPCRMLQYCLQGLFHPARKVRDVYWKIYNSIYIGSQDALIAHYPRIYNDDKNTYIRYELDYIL
Sequence of UniProt Q9Y4Y9 (Q9Y4Y9 whole entry): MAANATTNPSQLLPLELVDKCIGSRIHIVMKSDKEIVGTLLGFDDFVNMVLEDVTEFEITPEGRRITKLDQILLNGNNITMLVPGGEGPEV
Sequence of UniProt Q6UW63 (Q6UW63 whole entry): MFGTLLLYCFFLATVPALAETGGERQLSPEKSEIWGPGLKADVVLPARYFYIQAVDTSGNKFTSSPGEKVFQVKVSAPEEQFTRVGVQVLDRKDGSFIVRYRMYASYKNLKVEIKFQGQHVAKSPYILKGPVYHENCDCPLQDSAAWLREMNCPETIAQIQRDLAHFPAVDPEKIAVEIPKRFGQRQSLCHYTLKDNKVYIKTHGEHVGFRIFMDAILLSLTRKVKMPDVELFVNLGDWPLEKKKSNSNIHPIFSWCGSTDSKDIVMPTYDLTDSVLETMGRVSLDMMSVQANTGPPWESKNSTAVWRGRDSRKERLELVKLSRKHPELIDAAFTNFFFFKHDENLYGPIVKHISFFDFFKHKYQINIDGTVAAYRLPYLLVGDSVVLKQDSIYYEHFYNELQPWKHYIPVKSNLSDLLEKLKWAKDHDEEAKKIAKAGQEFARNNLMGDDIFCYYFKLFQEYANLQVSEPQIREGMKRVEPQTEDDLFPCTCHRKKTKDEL
Sequence of UniProt Q9UNS2 (Q9UNS2 whole entry): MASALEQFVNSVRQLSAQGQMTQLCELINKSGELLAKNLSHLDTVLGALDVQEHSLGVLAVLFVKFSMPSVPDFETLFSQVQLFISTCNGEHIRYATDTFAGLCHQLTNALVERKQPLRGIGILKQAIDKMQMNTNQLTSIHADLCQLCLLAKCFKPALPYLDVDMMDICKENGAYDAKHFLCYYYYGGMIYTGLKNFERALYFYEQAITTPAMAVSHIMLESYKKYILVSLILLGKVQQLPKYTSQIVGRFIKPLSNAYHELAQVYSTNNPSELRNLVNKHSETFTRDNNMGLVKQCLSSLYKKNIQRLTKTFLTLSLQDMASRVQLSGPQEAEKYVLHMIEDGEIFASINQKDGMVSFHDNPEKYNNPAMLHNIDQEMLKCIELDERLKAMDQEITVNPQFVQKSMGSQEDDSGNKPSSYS
Sequence of UniProt P60842 (P60842 whole entry): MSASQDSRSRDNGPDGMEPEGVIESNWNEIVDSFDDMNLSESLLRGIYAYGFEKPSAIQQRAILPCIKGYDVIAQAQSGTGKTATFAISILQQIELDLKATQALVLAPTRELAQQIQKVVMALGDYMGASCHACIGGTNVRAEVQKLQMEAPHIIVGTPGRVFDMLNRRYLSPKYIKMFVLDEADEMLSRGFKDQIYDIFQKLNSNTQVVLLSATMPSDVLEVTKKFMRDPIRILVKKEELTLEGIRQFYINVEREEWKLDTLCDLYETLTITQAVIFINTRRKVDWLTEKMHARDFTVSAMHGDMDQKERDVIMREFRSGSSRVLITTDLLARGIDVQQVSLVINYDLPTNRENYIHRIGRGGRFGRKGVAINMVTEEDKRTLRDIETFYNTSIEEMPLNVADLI
Sequence of UniProt Q15005 (Q15005 whole entry): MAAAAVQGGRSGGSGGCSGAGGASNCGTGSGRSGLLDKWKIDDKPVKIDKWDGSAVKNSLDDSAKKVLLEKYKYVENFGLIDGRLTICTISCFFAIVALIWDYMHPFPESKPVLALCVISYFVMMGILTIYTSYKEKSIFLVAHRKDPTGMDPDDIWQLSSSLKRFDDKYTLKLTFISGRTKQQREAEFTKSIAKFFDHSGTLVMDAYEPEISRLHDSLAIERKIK
Sequence of UniProt Q12893 (Q12893 whole entry): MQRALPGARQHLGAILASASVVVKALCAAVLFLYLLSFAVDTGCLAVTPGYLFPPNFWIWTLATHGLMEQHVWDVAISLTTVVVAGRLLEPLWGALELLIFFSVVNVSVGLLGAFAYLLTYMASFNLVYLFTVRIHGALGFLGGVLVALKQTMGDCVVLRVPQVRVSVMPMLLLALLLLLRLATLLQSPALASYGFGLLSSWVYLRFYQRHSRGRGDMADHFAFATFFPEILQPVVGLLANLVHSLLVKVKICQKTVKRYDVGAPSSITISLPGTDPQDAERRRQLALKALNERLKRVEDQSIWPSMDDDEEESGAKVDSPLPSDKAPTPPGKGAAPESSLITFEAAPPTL
Sequence of UniProt O14641 (O14641 whole entry): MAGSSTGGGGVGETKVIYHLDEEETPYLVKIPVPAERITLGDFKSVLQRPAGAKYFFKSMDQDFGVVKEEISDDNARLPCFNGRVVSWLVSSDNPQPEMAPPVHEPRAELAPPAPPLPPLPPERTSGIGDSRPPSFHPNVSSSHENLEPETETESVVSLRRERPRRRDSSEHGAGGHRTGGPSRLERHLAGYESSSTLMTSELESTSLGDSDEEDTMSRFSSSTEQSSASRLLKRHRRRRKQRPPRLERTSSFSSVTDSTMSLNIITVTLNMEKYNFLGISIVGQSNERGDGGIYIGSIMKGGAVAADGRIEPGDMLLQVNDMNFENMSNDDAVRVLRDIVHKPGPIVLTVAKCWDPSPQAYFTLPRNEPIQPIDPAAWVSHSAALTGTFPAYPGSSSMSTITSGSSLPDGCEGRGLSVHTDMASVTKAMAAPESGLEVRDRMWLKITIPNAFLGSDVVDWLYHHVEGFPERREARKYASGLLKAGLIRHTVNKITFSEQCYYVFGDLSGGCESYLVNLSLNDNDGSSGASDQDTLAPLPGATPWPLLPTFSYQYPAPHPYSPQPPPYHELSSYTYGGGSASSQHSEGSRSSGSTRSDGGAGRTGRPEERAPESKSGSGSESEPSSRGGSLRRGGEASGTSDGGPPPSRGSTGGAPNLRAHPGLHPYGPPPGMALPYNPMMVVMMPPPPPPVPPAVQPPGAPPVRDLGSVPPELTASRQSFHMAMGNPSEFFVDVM
Sequence of UniProt Q9H4I3 (Q9H4I3 whole entry): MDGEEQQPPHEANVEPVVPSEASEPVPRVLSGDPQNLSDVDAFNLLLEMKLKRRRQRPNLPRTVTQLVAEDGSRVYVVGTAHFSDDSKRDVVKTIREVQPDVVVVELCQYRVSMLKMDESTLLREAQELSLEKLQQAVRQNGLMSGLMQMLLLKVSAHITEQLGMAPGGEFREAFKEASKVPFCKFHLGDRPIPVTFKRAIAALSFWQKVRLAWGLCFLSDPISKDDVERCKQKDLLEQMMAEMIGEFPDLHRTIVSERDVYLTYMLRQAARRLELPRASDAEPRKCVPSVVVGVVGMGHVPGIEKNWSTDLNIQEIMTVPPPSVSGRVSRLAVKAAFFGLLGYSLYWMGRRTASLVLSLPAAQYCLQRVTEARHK
Sequence of UniProt P51397 (P51397 whole entry): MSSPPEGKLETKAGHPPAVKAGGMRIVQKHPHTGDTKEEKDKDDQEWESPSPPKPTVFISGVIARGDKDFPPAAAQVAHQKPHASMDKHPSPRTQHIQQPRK

For USP11 (UniProt P51784), the values for the thermal stability z-score with lipoamide (setting [1]), in the test with lipoamide (arsenate co-treatment: none) and in the test with potassium arsenate were -0.0801, -0.162 and 0.143, respectively.
Taken in the same sequence, the figures for LSM5 (UniProt Q9Y4Y9) were -0.69, 0.0925 and -1.23.
On to TPD52L1 (UniProt Q16890), for which the thermal stability z-score with lipoamide (setting [1]) amounted to 0.471; with lipoamide (arsenate co-treatment: none), 0.545; with potassium arsenate, 0.237.
In the same order, the values of SPCS2 (UniProt Q15005) are -0.33, -0.411 and -0.373.
With PPP1R14B (UniProt Q96C90), the thermal stability z-score is 0.068 with lipoamide (setting [1]), 0.535 with lipoamide (arsenate co-treatment: none) and -0.284 with potassium arsenate.
With DVL2 (UniProt O14641), the thermal stability z-score was -0.0654 with lipoamide (setting [1]), -0.194 in the test with lipoamide (arsenate co-treatment: none) and -0.113 with potassium arsenate.
In the same order, the values of DAP (UniProt P51397) are 1.03, 0.89 and -0.0556.
In the same order, the values of PCIF1 (UniProt Q9H4Z3) are 0.0909, 0.207 and -0.0419.
Taken in the same sequence, the figures for TRABD (UniProt Q9H4I3) were 0.366, 0.172 and -0.0912.
EPHA2 (UniProt P29317): the figures for the thermal stability z-score with lipoamide (setting [1]), with lipoamide (arsenate co-treatment: none) and with potassium arsenate were -0.528, -0.029 and -0.211, respectively.
In the same order, the values of EIF4A1 (UniProt P60842) are 0.413, 0.201 and 0.0167.
In the same order, the values of PTGES2 (UniProt Q9H7Z7) are -0.199, 0.0528 and 0.178.
For TIMELESS (UniProt Q9UNS1), the thermal stability z-score was -0.244 in the test with lipoamide (setting [1]), -0.0831 with lipoamide (arsenate co-treatment: none) and -0.498 in the test with potassium arsenate.
In the same order, the values of INTS3 (UniProt Q68E01) are -0.121, -0.0169 and 0.26.
In the same order, the values of KDELC1 (UniProt Q6UW63) are -2.9, -2.19 and 0.422.
In the same order, the values of SNX27 (UniProt Q96L92) are -0.141, 0.167 and 0.511.
Turning to SF3B1 (UniProt O75533), the thermal stability z-score with lipoamide (setting [1]) is 2.46; with lipoamide (arsenate co-treatment: none) it was 0.661; with potassium arsenate, -0.873.
On to MBTPS1 (UniProt Q14703), for which the thermal stability z-score is -0.923 in the test with lipoamide (setting [1]), -0.876 with lipoamide (arsenate co-treatment: none) and -0.822 with potassium arsenate.
Taken in the same sequence, the figures for RXRA (UniProt P19793) were 0.08, 0.208 and -0.255.
As to ARHGEF16 (UniProt Q5VV41), the thermal stability z-score with lipoamide (setting [1]) is 0.251; with lipoamide (arsenate co-treatment: none), -0.0771; with potassium arsenate it was -0.201.
Taken in the same sequence, the figures for TMEM115 (UniProt Q12893) were 0.0848, 0.637 and -0.307.
On to TMED3 (UniProt Q9Y3Q3), for which the figures for the thermal stability z-score in the test with lipoamide (setting [1]), in the test with lipoamide (arsenate co-treatment: none) and with potassium arsenate were -0.694, -0.398 and 0.316, respectively.
Taken in the same sequence, the figures for COPS3 (UniProt Q9UNS2) were 0.508, 0.201 and 0.344.
